Tested on: 855422-203-R-J1-PDC complex spheroid viability
Assay: Anticancer human tumor 855422-203-R-J1-PDC patient-derived bladder carcinoma cell line growth inhibition
Details: for IC50: curve of first compound; for viability, T/C: stronger effect = lower value
Text: Multicellular complex tumor spheroid response to LSD1 Inhibitor Iadademstat in combination with a variety of drugs and investigational agents in selected tumor cell lines
The current study was undertaken to assess response to LSD1 inhibitors in combination with standard-of-care drugs and investigational agents in solid tumor complex spheroid models as well as in the K-562 leukemia. Complex spheroids include a stromal component modeled by human endothelial cells (HUVEC) and fibroblasts modeled by human mesenchymal stem cells (MSCs). The concentration ranges selected for each drug and investigational agent were based upon clinically achievable concentrations if the clinical Cmax of the agent was known.
Compounds. The drugs and investigational agents used in this study are listed on Table 1. All of the agents used, including staurosporine (NSC755774) and gemcitabine (NSC613327), were obtained from the Developmental Therapeutics Program, NCI. FDA-approved anticancer drugs are available from the NCI at http://dtp.nci.nih.gov/branches/dscb/oncology_drugset_explanation.html. Drugs and investigational agents were >95% pure by proton nuclear magnetic resonance (NMR) and liquid chromatography/mass spectrometry (LC/MS). Stock solutions were prepared at 400x in DMSO, stored at -70 degrees C, and diluted in fresh medium prior to their use. The final concentration of DMSO in cell culture wells never exceeded 0.25% (v/v). The FDA-approved anticancer drug set is available from the Developmental Therapeutics Program at https://dtp.cancer.gov/organization/dscb/obtaining/available_plates.htm. All drugs and investigational agents were tested over a range starting from a high concentration at or near the clinical Cmax and decreasing in half-log increments. If the clinical Cmax for an agent had not been determined, the highest concentration tested was 10 microM.
Cell Lines. The patient-derived cancer cell (PDC) lines: 292921-168-R-J2-PDC, K24384-001-R-PDC, and 521955-158-R2-J5-PDC pancreatic carcinomas, 556581-035-R-J1 ovarian carcinoma, 324938-238-R-J1-PDC, 855422-203-R-J1-PDC and 883617-216-R-J1-PDC urothelial bladder carcinomas, 743489-274-T-PDC renal cell carcinoma, 138582-R-J1 Merkel cell tumor, K60290-347-R-J1 and K57222-313-R-J1-PDC glioblastomas, 653999-131-R-J2-PDC, LG0703-F948-PDC, and 349418-098-R-PDC non-small cell lung carcinomas, 885512-296-R-J2-PDC, 171881-019-R-J1-PDC breast carcinomas and 186277-243-T-J2-PDC and 233499-124-R-J2-PDC colon carcinomas were obtained from the NCI Patient-Derived Models Repository (PDMR, https://pdmr.cancer.gov). The established cell lines NCI/ADR-RES (RRID:CVCL_14520 and OVCAR-5 (RRID:CVCL_1628) ovarian carcinomas, 786-O (RRID:CVCL_1051) and A498 (RRID:CVCL_A498) renal cell carcinoma, NCI-H211 (ATCC, cat. CRL-5824; RRID:CVCL_1529), NCI-H196 (ATCC, cat. CRL-5823, RRID:CVCL_1509), SW 1271 (ATCC, cat. CRL-2177, RRID:CVCL_1716) and NCI-H1876 (ATCC, cat. CRL-5902, RRID:CVCL_1503) small cell lung carcinomas, MDA-MB-231 (RRID:CVCL_0062) and MDA-MB-468 (RRID:CVCL_0419)breast carcinomas (10-12). Pooled donor human umbilical vein endothelial cells (HUVEC, Lonza, cat. CC-2519) and human mesenchymal stem cells (hMSC, Lonza, cat. PT-2501) were purchased from Lonza (Walkersville, MD).
Cell Culture. All cells were maintained in an incubator at 37 degrees C and 5% CO2 with 95% humidity. The PDC lines were cultured according to standard operating procedures established by the NCI PDMR (https://pdmr.cancer.gov). Briefly all PDCs were thawed and cultured in Matrigel-coated flasks prepared with a working solution of 1X Ham's F-12 nutrient mix, without supplementation (Invitrogen, Waltham, MA, cat. 11765054), 100 U/mL penicillin-streptomycin (Invitrogen, cat. 15140122), and 2.5% Matrigel (Corning Inc., Corning, NY, cat. 354248) for the first three passages. […]
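Note: drug exposure lasted 7 days starting on day 3 after seeding.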
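Throughout, for viability, T/C: luminescence viability as percent of DMSO vehicle wells = 100%.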

Compound: COc1cc(Nc2ncc3c(n2)-c2ccc(Cl)cc2C(c2c(F)cccc2OC)=NC3)ccc1C(=O)O + NC1CC1c1ccc(-c2cccc(O)c2)cc1
- IC50 (second compound 0.1 µM): 670 nM
- IC50 (second compound 0.316 µM): 284 nM
- IC50 (second compound 1 µM): 89.7 nM
- IC50 (second compound 3.16 µM): 275 nM
- IC50 (second compound 10 µM): 135 nM
- viability, T/C (second compound 0.1 µM, first compound 0.00316 µM): 96.4%
- viability, T/C (second compound 0.1 µM, first compound 0.01 µM): 103%
- viability, T/C (second compound 0.1 µM, first compound 0.0316 µM): 84%
- viability, T/C (second compound 0.1 µM, first compound 0.1 µM): 68.6%
- viability, T/C (second compound 0.1 µM, first compound 0.316 µM): 56.2%
- viability, T/C (second compound 0.1 µM, first compound 1 µM): 46.5%
- viability, T/C (second compound 0.316 µM, first compound 0.00316 µM): 96.9%
- viability, T/C (second compound 0.316 µM, first compound 0.01 µM): 96.4%
- viability, T/C (second compound 0.316 µM, first compound 0.0316 µM): 71%
- viability, T/C (second compound 0.316 µM, first compound 0.1 µM): 61.2%
- viability, T/C (second compound 0.316 µM, first compound 0.316 µM): 49.9%
- viability, T/C (second compound 0.316 µM, first compound 1 µM): 44.4%
- viability, T/C (second compound 1 µM, first compound 0.00316 µM): 82.5%
- viability, T/C (second compound 1 µM, first compound 0.01 µM): 93.4%
- viability, T/C (second compound 1 µM, first compound 0.0316 µM): 69.5%
- viability, T/C (second compound 1 µM, first compound 0.1 µM): 51.8%
- viability, T/C (second compound 1 µM, first compound 0.316 µM): 45.8%
- viability, T/C (second compound 1 µM, first compound 1 µM): 46.1%
- viability, T/C (second compound 3.16 µM, first compound 0.00316 µM): 88.3%
- viability, T/C (second compound 3.16 µM, first compound 0.01 µM): 95.5%
- viability, T/C (second compound 3.16 µM, first compound 0.0316 µM): 69.9%
- viability, T/C (second compound 3.16 µM, first compound 0.1 µM): 61.4%
- viability, T/C (second compound 3.16 µM, first compound 0.316 µM): 50%
- viability, T/C (second compound 3.16 µM, first compound 1 µM): 43.4%
- viability, T/C (second compound 10 µM, first compound 0.00316 µM): 85.7%
- viability, T/C (second compound 10 µM, first compound 0.01 µM): 94.1%
- viability, T/C (second compound 10 µM, first compound 0.0316 µM): 63.1%
- viability, T/C (second compound 10 µM, first compound 0.1 µM): 56.8%
- viability, T/C (second compound 10 µM, first compound 0.316 µM): 44.2%
- viability, T/C (second compound 10 µM, first compound 1 µM): 39.5%

Compound: O=C(C=Cc1cccc(S(=O)(=O)Nc2ccccc2)c1)NO + NC1CC1c1ccc(-c2cccc(O)c2)cc1
- IC50 (second compound 0.1 µM): 446 nM
- IC50 (second compound 0.316 µM): 448 nM
- IC50 (second compound 1 µM): 404 nM
- IC50 (second compound 3.16 µM): 466 nM
- IC50 (second compound 10 µM): 336 nM
- viability, T/C (second compound 0.1 µM, first compound 0.00949 µM): 102%
- viability, T/C (second compound 0.1 µM, first compound 0.03 µM): 109%
- viability, T/C (second compound 0.1 µM, first compound 0.0949 µM): 106%
- viability, T/C (second compound 0.1 µM, first compound 0.3 µM): 66.2%
- viability, T/C (second compound 0.1 µM, first compound 0.949 µM): 17.4%
- viability, T/C (second compound 0.1 µM, first compound 3 µM): 0.43%
- viability, T/C (second compound 0.316 µM, first compound 0.00949 µM): 103%
- viability, T/C (second compound 0.316 µM, first compound 0.03 µM): 112%
- viability, T/C (second compound 0.316 µM, first compound 0.0949 µM): 122%
- viability, T/C (second compound 0.316 µM, first compound 0.3 µM): 66.4%
- viability, T/C (second compound 0.316 µM, first compound 0.949 µM): 19.4%
- viability, T/C (second compound 0.316 µM, first compound 3 µM): 0.31%
- viability, T/C (second compound 1 µM, first compound 0.00949 µM): 100%
- viability, T/C (second compound 1 µM, first compound 0.03 µM): 116%
- viability, T/C (second compound 1 µM, first compound 0.0949 µM): 114%
- viability, T/C (second compound 1 µM, first compound 0.3 µM): 60.4%
- viability, T/C (second compound 1 µM, first compound 0.949 µM): 18.3%
- viability, T/C (second compound 1 µM, first compound 3 µM): 0.29%
- viability, T/C (second compound 3.16 µM, first compound 0.00949 µM): 94.5%
- viability, T/C (second compound 3.16 µM, first compound 0.03 µM): 105%
- viability, T/C (second compound 3.16 µM, first compound 0.0949 µM): 118%
- viability, T/C (second compound 3.16 µM, first compound 0.3 µM): 69.8%
- viability, T/C (second compound 3.16 µM, first compound 0.949 µM): 17.1%
- viability, T/C (second compound 3.16 µM, first compound 3 µM): 0.24%
- viability, T/C (second compound 10 µM, first compound 0.00949 µM): 97.6%
- viability, T/C (second compound 10 µM, first compound 0.03 µM): 108%
- viability, T/C (second compound 10 µM, first compound 0.0949 µM): 106%
- viability, T/C (second compound 10 µM, first compound 0.3 µM): 54%
- viability, T/C (second compound 10 µM, first compound 0.949 µM): 10.9%
- viability, T/C (second compound 10 µM, first compound 3 µM): 0.27%

— PubChem BioAssay AID1918943 (Molecular Pharmacology Branch, DTP, NCI, 2023)
